Data: patent US5621007A, “Method for regulation of transmembrane chloride conductance” (Bristol-Myers Squibb Company, priority 1995, dated 1997)
Entries after “also recorded” stand apart in the source; their conditions may differ. Where two headings read alike, the source gives them in different places.

Tests used:
wild-type CFTR [1] = biological target: T1, wild-type CFTR (Homo sapiens, UniProt P13569); test: 125I efflux from Vero cells expressing wild-type CFTR; format: cell-based
[2] = test system: Control cells (not expressing CFTR constructs); test: Outside-out patch clamp, control Vero cells not expressing CFTR constructs; format: cell-based, monkey
Description: Subsequently, various concentrations of NS004 were tested for direct effects on ^125 I efflux in cells expressing wild-type and ΔF508 CFTR constructs, the ability of NS004 to affect the anion efflux stimulated by cAMP (produced by application of Forskolin) was also tested. In addition, both whole-cell and single-channel (outside-out) patch clamp configurations were employed to directly determine the effects of cAMP (produced by addition of Forskolin), NS004, and the combination of cAMP and NS004 on whole-cell and single channel Cl^- currents in infected Vero cells under nominally sodium and potassium-free conditions. In all cases data were collected and analyzed by computer.

[3] = test system: uninjected or H2 O-injected oocytes; test: Two-electrode voltage clamp, uninjected or H2O-injected oocytes (control); format: cell-based, Xenopus laevis; conditions: NS004, uninjected or H2O-injected oocytes
Description: Oocytes were surgically removed from Xenopus laevis anesthetized with 0.12% 3-aminobenzoic acid ethyl ester (Tricaine). Oocytes were first rinsed with Ca^2+ -free OR2 medium (82.5 mM NaCl, 1 mM KCl, 1 mM MgCl2, 5 mM HEPES, pH 7.5 with NaOH) followed by incubation in collagenase (1.5 mg/ml prepared in Ca^2+ -free OR2 medium) for 4 hours at room temperature. After enzyme treatment, cells were rinsed 8× with OR2 medium and then rinsed again 8× with ND96 medium (90 mM NaCl, 1 mM KCl, 1 mM CaCl2, 1 mM MgCl2, 5 mM HEPES, pH 7.5 with NaOH). Oocytes were stored overnight at 17° C. Late stage V and early stage VI cells that were visualized to be fully defolliculated to the vitelline envelope were selected for microinjection.
Electrophysiological evaluation of the effects of putative CFTR openers were assessed in oocytes expressing wild-type and ΔF508 CFTR constructs using standard two-electrode voltage clamp techniques. Generally, a family of currents was generated under control conditions (incubated in Modified Barth's Solution, MBS, a typical physiological saline medium, in the absence of drugs), with no current or small currents generated under drug-free conditions. […] Data were collected and analyzed using a computer equipped with an A/D interface and appropriate acquisition and analysis software.

mock transfected cells [4] = test: Whole-cell patch clamp, mock transfected Vero cells; format: cell-based, monkey
[5] = test system: ΔF508 mutant CFTR Cl- channels; format: cell-based
mock transfected cells [6] = test system: mock transfected cells
ΔF508 CFTR [7] = test: 125I efflux from Vero cells expressing ΔF508 CFTR; format: cell-based
wild-type CFTR [8] = biological target: T1, wild-type CFTR; test: Two-electrode voltage clamp, Xenopus oocytes expressing wild-type CFTR; format: cell-based
wild-type CFTR [9] = biological target: T1, wild-type CFTR; test: Whole-cell patch clamp, Vero cells expressing wild-type CFTR; format: cell-based
ΔF508 CFTR [10] = test: Whole-cell patch clamp, Vero cells expressing ΔF508 CFTR; format: cell-based
[11] = test system: wild-type CFTR Cl- channels; test: Outside-out single channel patch clamp, Vero cells expressing wild-type CFTR; format: cell-based; conditions: sub-micromolar to micromolar NS004, outside-out excised patches
ΔF508 CFTR [12] = test: Two-electrode voltage clamp, Xenopus oocytes expressing ΔF508 CFTR; format: cell-based
chloride channels = conditions: cited from earlier work
[13] = NS004 alone at the flux-experiment concentrations, Vero cells

T1 sequence (P13569 whole entry): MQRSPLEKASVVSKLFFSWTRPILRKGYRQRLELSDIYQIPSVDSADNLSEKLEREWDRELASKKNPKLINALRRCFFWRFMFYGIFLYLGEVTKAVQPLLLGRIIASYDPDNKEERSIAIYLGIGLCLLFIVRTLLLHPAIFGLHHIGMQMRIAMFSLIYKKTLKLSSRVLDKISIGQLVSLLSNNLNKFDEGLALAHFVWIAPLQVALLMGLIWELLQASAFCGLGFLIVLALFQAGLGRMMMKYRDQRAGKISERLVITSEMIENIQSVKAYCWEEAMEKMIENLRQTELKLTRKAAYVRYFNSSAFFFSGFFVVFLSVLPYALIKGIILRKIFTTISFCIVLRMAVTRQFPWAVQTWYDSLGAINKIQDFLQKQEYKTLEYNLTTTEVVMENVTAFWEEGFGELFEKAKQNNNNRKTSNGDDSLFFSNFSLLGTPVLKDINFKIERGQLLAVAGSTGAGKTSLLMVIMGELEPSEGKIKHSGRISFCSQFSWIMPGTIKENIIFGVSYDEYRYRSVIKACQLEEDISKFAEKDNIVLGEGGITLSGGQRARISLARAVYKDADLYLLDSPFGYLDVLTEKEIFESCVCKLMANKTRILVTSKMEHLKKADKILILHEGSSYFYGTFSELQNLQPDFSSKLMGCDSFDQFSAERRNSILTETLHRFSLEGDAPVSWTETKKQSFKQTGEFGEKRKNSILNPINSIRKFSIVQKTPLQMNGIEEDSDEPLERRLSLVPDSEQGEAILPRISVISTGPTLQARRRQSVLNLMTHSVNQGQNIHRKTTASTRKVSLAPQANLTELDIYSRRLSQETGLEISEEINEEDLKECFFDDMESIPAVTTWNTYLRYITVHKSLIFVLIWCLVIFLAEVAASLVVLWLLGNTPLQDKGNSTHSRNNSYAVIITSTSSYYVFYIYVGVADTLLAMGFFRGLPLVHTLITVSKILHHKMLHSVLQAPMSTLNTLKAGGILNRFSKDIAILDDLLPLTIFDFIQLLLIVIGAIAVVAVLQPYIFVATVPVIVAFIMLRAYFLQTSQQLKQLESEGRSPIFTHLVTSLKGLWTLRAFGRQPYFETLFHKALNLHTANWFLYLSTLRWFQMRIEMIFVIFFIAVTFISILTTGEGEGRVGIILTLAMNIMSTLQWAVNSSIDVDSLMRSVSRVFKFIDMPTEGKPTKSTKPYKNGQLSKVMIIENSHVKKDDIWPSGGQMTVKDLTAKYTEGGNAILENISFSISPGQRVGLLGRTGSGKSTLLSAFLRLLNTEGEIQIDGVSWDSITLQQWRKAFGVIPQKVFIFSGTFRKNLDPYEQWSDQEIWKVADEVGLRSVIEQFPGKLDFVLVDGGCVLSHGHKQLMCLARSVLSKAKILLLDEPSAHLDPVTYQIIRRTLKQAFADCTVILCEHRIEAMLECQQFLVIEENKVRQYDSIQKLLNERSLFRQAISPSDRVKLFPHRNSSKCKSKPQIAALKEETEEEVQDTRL

## O=c1[nH]c2cc(C(F)(F)F)ccc2n1-c1cc(Cl)ccc1O [NS004, 5-trifluoromethyl-1-(5-chloro-2-hydroxyphenyl)-1,3-dihydro-2H-benzimidazol-2-one]
wild-type CFTR [1]; NS004 20 μM alone, Vero cells expressing CFTR (FIG. 2)
  125I efflux relative to control: increased relative to control
wild-type CFTR [1]; NS004 alone, 0.1-20 micromolar concentration range, Vero cells, wild-type CFTR
  125I-flux over control values: increased modestly over control values; also recorded: only modest direct increases in ^125 I efflux
wild-type CFTR [1]; both cAMP and NS004, Vero cells, wild-type CFTR
  total anion flux: did not significantly increase total anion flux
[2]
  channel response to drug application: did not respond to drug application
[3]
  increase in Cl- current: never seen
Mock transfected cells [4]
  effect on whole cell Cl- current: no effects
[5]
  opening / open probability of single Cl- channels: rapid and reversible direct increase in the opening of these channels; also recorded: potently and directly opened Cl^- channels; also recorded: greatly increased the open probability
Mock transfected cells [6]
  response on 125I efflux: no response
ΔF508 CFTR [7]; cAMP plus NS004, Vero cells, ΔF508 CFTR
  time course of the increase in anion flux produced by cAMP: reduced the slow time course
ΔF508 CFTR [7]; co-administration of cAMP and NS004, ΔF508 CFTR, compared with cAMP in wild-type CFTR cells
  levels of 125I efflux attained: comparable to the efflux stimulated by cAMP in cells expressing wild-type CFTR
ΔF508 CFTR [7]; coapplication of cAMP (Forskolin, 5 μM in FIG. 2) and NS004, Vero cells, ΔF508 CFTR
  amplitude of the increase in 125I efflux produced by cAMP: greatly potentiated; also recorded: greatly enhanced the amplitude; also recorded: robust potentiation of ^125 I efflux
ΔF508 CFTR [7]; direct application of NS004 alone, Vero cells, ΔF508 CFTR
  125I-flux: only marginally effected; also recorded: only modest direct increases in ^125 I efflux
wild-type CFTR [8]; NS004 added to cAMP-stimulated wild-type CFTR, oocytes
  chloride current of the cAMP-stimulated channel: only a marginal enhancement of chloride current; also recorded: only a small potentiation of cAMP-stimulated current
wild-type CFTR [8]; NS004 alone, Xenopus oocytes, wild-type CFTR
  reversibility of the increase in Cl- current: rapidly reversible; also recorded: reversibly open
wild-type CFTR [8]; NS004 applied alone, unstimulated wild-type CFTR, Xenopus oocytes
  Cl- current: large increase in Cl^- current; also recorded: great efficacy; also recorded: significant increase in the Cl^- current
wild-type CFTR [8]; Xenopus oocytes
  potency (concentration range) for opening unstimulated wild-type CFTR: sub-micromolar to micromolar
wild-type CFTR [9]; [13]
  whole cell inward and outward Cl- current: large to moderate increases; also recorded: significant increase in the Cl^- current
wild-type CFTR [9]; combination of cAMP stimulation and NS004, Vero cells
  whole cell Cl- current relative to cAMP alone: only marginal increases in current; also recorded: only a small potentiation of cAMP-stimulated current
ΔF508 CFTR [10]; [13]
  whole cell inward and outward Cl- current: large to moderate increases; also recorded: smaller direct increase in whole cell Cl^- current
ΔF508 CFTR [10]; cAMP plus NS004, Vero cells
  maximal stimulation of Cl- current by cAMP: potently potentiated the maximal stimulation of Cl^- current by cAMP; also recorded: profound potentiation of cAMP stimulation of Cl^- current
  response time to peak of cAMP-stimulated Cl- current: greatly enhanced the response time to peak
[11]
  opening / open probability of single Cl- channels: potently and directly opened Cl^- channels; also recorded: greatly increased the open probability
ΔF508 CFTR [12]; NS004 applied alone, oocytes expressing ΔF508 CFTR
  chloride current: only a small enhancement of chloride current; also recorded: smaller direct increase in whole cell Cl^- current
ΔF508 CFTR [12]; NS004 simultaneously applied with cAMP and related agents, oocytes expressing ΔF508
  level of cAMP stimulation of channel activity (Cl- current): greatly exacerbated the level of cAMP stimulation of channel activity; also recorded: profound potentiation of cAMP stimulation of Cl^- current
ΔF508 CFTR [12]; both cAMP and NS004 present, oocytes expressing ΔF508
  time course of cAMP-stimulated chloride current increase: greatly reduced (response time enhanced)

## C1CCN2C[C@@H]3C[C@@H](CN4CCCC[C@@H]34)[C@H]2C1 [sparteine, dodecahydro-7,14-methano-2H,6H-di-pyrido[1,2-a;1',2'-e][1,5]diazocine]
Chloride channels; higher doses
  effect on chloride channels: blocking chloride channels
Chloride channels; low doses
  effect on chloride channels: activating chloride channels
